Read-outs that look alike come from different tables or passages of the source.
What was measured:
[1] = Procedure: Fujifilm Wako Pure Chemical
The poorly soluble compound content in the recovered filtrate was measured by liquid chromatography specified below (Shimadzu (Kyoto), high performance liquid chromatograph Prominence).
As the standard product of triamcinolone acetonide, a reagent from the Pharmaceutical and Medical Device Regulatory Science Society of Japan (Japan) was used. • 50 μL of sample solution and standard solution was measured by liquid chromatography under the following conditions.
Column temperature: constant temperature of about 40° C. Mobile phase A: 0.1% trifluoroacetic acid/10% acetonitrile solution Mobile phase B: 0.1% trifluoroacetic acid/90% acetonitrile solution Delivery of mobile phase: the ratio of mixture of mobile phase A and mobile phase B was changed as follows to control the linear concentration gradient.
Detergent: 50% acetonitrile solution Flow rate: 1.0 mL/min Temperature within autosampler: 5° C.
The following conditions were tested as additives to a poorly soluble compound
wherein SA+B=solubility of a poorly soluble compound in a composition comprising poloxamer 407 and PEG 4000 SB=solubility of a poorly soluble compound in a composition comprising PEG 4000, but not poloxamer 407 SA=solubility of a poorly soluble compound in a composition comprising poloxamer 407, but not PEG 4000 S0=solubility of a poorly soluble compound in a composition that comprises neither poloxamer 407 nor PEG 4000.
The solubility in a composition of PEG and poloxamer was measured in the same manner described above for additional compounds.
For cabozantinib and telmisartan, the pH of the aqueous solution with the base composition described above was changed to 7.4. For rebamipide, the aqueous solution with the base composition was as follow. • 0.05% sodium hydrogen phosphate hydrate • 0.45% sodium dihydrogen phosphate hydrate • sodium hydroxide and hydrochloric acid (suitable amount was added to adjust the pH to 6.0)
Additional compounds were measured in the same manner described above.
Cabozantinib and telmisartan were tested with a solution adjusted to a pH of 7.4. Rebamipide was tested with a solution adjusted to a pH of 6.0. Other compounds were tested with a solution adjusted to a pH of 7.0.

[2] = Basic solubility at 25° C. in ethanol, PEG 400, propylene glycol (PG) and buffer solution; solubility ratio non-aqueous solvent / buffer solution; details: for Solubility ratio of solvent with respect to buffer solution Ethanol/buffer solution / Solubility ratio of solvent with respect to buffer solution PEG400/buffer solution / Solubility ratio of solvent with respect to buffer solution PG/buffer solution: buffer pH 7.0 (pH 7.4 for cabozantinib and telmisartan; pH 6.0 for rebamipide)
Procedure: In this regard, the buffer solution had the following composition: • 0.2% sodium hydrogen phosphate hydrate • 0.3% sodium dihydrogen phosphate hydrate • sodium hydroxide and hydrochloric acid (suitable amount was added to adjust the pH to 7.0; however, pH was adjusted to 7.4 for cabozantinib and telmisartan).
However, the following composition was used for rebamipide instead: • 0.05% sodium hydrogen phosphate hydrate • 0.45% sodium dihydrogen phosphate hydrate • sodium hydroxide and hydrochloric acid (suitable amount was added to adjust the pH to 6.0).
Each compound was measured in the same manner described above. In the Table, the molecular weight and Log P values are reference values (or values calculated from reference values).

[3] = reference values; pH upon measurement: rebamipide pH 7.0, telmisartan pH 7.4, cilostazol pH 7.0, aprepitant pH 7, cabozantinib pH 7.4; cited from earlier work
[4] = type: physicochemical
Procedure: The solubility of a poorly soluble compound was measured by further adding a water-soluble macromolecule.
DKS Co. Ltd. • SBE-β-CD . . . MedChemExpress LLC • HP-β-CD . . . Fujifilm Wako Pure Chemical

Row | Solubility scale factor at 5° C. 30% PEG 4000/10% poloxamer 407 [1] | Solubility scale factor at 15° C. 30% PEG 4000/10% poloxamer 407 [1] | Solubility ratio of solvent with respect to buffer solution Ethanol/buffer solution ([2]; 25° C.) | Solubility ratio of solvent with respect to buffer solution PEG400/buffer solution ([2]; 25° C.) | Solubility ratio of solvent with respect to buffer solution PG/buffer solution ([2]; 25° C.) | effect of the addition on solubility of celecoxib in PEG/poloxamer composition [4] | Molecule | Log P [3] | also measured
1 | 1377.77 | 236.00 | 129308.39 | 60601.21 | 43995.44 | – | C[C@@H](O[C@H]1OCCN(Cc2n[nH]c(=O)[nH]2)[C@H]1c1ccc(F)cc1)c1cc(C(F)(F)F)cc(C(F)(F)F)c1 [Aprepitant] | 4.8 ± 0.1 | Solubility, Ethanol [2]: 2.483%
2 | 1.13 | 1.07 | 2.67 | 5.41 | 4.88 | – | O=C(NC(Cc1cc(=O)[nH]c2ccccc12)C(=O)O)c1ccc(Cl)cc1 (stereo not shown) [Rebamipide] | −0.22 | solubilization of compound due to poloxamer 407 by an addition of PEG 4000 [1]: lowest; Solubility, Ethanol ([2]; 25° C.): 0.06615%; Solubility, Buffer solution ([2]; 25° C., phosphate buffer adjusted to pH 6.0 (rebamipide)): 0.02473%
3 | – | – | – | – | – | improved solubility overall | sulfobutylether-β-cyclodextrin [SBE-β-CD] | – | effect on dissolution of a poorly soluble compound due to poloxamer 407 and PEG 4000 [4]: further improved the dissolution
4 | 19.75 | 18.27 | 2685.78 | 1803.78 | 2007.24 | – | CC1(C)O[C@@H]2C[C@H]3[C@@H]4C[C@H](F)C5=CC(=O)C=C[C@]5(C)[C@@]4(F)[C@@H](O)C[C@]3(C)[C@]2(C(=O)CO)O1 [Fluocinolone acetonide] | 2.48 | Solubility, Ethanol ([2]; 25° C.): 4.635%; Solubility, PG (propylene glycol) ([2]; 25° C.): 3.224%
5 | 288.38 | 74.57 | 1949439.39 | 25935652.78 | 1213400.25 | – | COc1cc2nccc(Oc3ccc(NC(=O)C4(C(=O)Nc5ccc(F)cc5)CC4)cc3)c2cc1OC [Cabozantinib] | 3.92 | –
6 | – | – | – | – | – | – | O=C1Nc2ccc(Cl)cc2[C@@](C#CC2CC2)(C(F)(F)F)O1 [Efavirenz] | 5.40 | state of the test composition [1]: converted into gel; Solubility, PG (propylene glycol) ([2]; 25° C.): 48.3%; Solubility, Buffer solution ([2]; 25° C., phosphate buffer pH 7.0): 0.0007278%
7 | 8.97 | 10.22 | 761.36 | 1146.93 | 761.23 | – | O=C1CCc2cc(OCCCCc3nnnn3C3CCCCC3)ccc2N1 [Cilostazol] | 2.76 | Solubility, PEG400 ([2]; 25° C.): 0.4342%
8 | 2.03 | 1.71 | 287.77 | 431.18 | 120.32 | – | CCCc1nc2c(C)cc(-c3nc4ccccc4n3C)cc2n1Cc1ccc(-c2ccccc2C(=O)O)cc1 [Telmisartan] | 3.2 | –
9 | – | – | – | – | – | improved solubility overall | carboxymethyl cellulose [CMC] | – | effect on dissolution of a poorly soluble compound due to poloxamer 407 and PEG 4000 [4]: tendency to further assist dissolution
10 | – | – | – | – | – | hardly improved the solubility | hydroxypropyl-β-cyclodextrin [HP-β-CD] | – | –
